From US20220259235A1, “EGFR Inhibitor, Composition, and Preparation Method Therefor” (BETTA PHARMACEUTICALS CO., LTD, priority 2019, published 2022) come the findings set out here.

Each structure is given as a SMILES string.

Series [1] can be described thus: Liver microsomal clearance test, dog. In kind it is in vitro ADME. Particulars: Dog liver microsomes, 0.5 mg/mL, NADPH. How it is done: Test 3 Liver Microsomal Clearance Test
1. Prepare 0.5 mg/mL liver microsome diluent containing K-butter and MgCl2:
2.1 Take 356 μL of the liver microsome diluent prepared above and add it to the preset wells of the incubation plate, the number of multiple wells n=1, mark it as the incubation plate.
2.2 Take 4 μL of the positive control compound Verapamil (50 μM) and the working solution of the test compound (200 μM) into the above incubation plate containing 356 μL of liver microsome diluent, and mix well (The dilution solvent from the stock solution to the working solution is a mixed solvent of acetonitrile: methanol: water=1:1:2, and the final concentration of DMSO is ≤0.5%),
2.3 Place the incubation plate in a 37° C. thermostatic oscillator (at shaking speed of 100 rpm) for pre-incubation with 10 min.
2.4 Add 40 μL of 10 mM NADPH (add 40 μL of K-buffer to the wells without NADPH) to each reaction well to start the reaction and start timing.
3. Sample collection and treatment:
3.1 After adding NADPH to start the reaction, immediately take out 50 μL of the sample and add it to the precipitation plate pre-added with 400 μL of stop solution, and shake on an oscillator at 600 rpm for 5 min at room temperature as a 0 min sample.
3.2 At the predetermined time points of 5 min, 15 min and 45 min, take out 50 μL of sample from the incubation plate and add it to the precipitation plate. The subsequent steps were the same as the treatment of 0 min sample. 3.3 After balancing, centrifuge above precipitation plate at 3200 rpm for 10 min at 4° C.
3.4 Take 50 μL of the supernatant after centrifugation and add it to pre-added 20% acetonitrile water at appropriate proportion, shake on an oscillator at 600 rpm for 2 min at room temperature, mix well, and put it into the LC-MS/MS sampler for sample injection.
Analysis of Experimental Data
1. […]
(In general: Microsomes from liver hold many membrane-bound enzymes, among them those of drug oxidation.)

The next series addresses EGFR Δ19del/T790M/C797S (Homo sapiens, UniProt P00533, T790M/C797S, form not given). Kind of series: EGFR Δ19del/T790M/C797S kinase test (mobility shift, Caliper EZ Reader). In kind it is biochemical. Particulars: kinase enzymatic activity, numeric values. The gist of the method: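 Mobility-shift assay in which kinase was preincubated 10 min at room temperature with a 10-point, 3-fold compound series starting at 3000 nM or 100 nM. ATP plus substrate then started the reaction at room temperature, and conversion was read on Caliper EZ Reader. IC50 came from a variable-slope fit of % inhibition against positive and negative controls.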

EGFR Δ19del/T790M/C797S, sequence (P00533 with tags, fused parts or gaps DEL746-750/T790M/C797S, form open): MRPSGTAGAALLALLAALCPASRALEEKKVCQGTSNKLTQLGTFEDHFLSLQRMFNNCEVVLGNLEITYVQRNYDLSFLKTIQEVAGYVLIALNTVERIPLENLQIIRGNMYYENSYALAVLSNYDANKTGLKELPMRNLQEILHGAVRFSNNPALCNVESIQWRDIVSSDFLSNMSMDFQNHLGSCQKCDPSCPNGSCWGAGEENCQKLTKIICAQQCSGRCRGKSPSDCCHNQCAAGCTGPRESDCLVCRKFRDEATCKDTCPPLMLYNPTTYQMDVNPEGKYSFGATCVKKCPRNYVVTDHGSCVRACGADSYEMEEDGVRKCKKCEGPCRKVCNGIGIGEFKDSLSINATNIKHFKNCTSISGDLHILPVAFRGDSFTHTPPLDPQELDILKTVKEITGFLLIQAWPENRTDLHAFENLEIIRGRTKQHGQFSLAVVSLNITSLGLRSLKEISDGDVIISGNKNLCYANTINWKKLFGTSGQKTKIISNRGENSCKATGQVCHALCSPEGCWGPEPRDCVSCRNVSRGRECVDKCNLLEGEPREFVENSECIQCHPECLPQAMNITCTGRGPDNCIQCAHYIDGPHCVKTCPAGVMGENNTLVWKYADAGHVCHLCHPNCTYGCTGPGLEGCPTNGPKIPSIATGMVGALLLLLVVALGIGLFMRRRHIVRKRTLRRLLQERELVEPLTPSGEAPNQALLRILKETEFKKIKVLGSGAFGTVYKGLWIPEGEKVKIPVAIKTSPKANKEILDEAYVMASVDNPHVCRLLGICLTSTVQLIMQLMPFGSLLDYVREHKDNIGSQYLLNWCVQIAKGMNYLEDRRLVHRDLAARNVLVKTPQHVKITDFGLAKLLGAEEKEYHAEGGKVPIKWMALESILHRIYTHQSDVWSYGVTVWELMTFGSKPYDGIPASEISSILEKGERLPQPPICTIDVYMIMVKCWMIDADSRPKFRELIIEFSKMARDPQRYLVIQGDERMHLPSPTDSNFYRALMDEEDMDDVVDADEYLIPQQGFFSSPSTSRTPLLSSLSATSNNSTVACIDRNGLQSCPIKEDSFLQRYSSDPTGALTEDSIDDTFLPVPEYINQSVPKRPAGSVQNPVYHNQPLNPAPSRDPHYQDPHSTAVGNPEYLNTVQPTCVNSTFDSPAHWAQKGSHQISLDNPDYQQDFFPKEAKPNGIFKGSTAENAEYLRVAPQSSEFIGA

Take `COc1cc(N2CCC(N3CCN(C)CC3)CC2)c(-c2cnn(C)c2)cc1Nc1ncc(Cl)c(Nc2ccc3nccnc3c2P(C)(C)=O)n1` [Compound 1, (6-((5-Chloro-2-((2-methoxy-5-(1-methyl-1hydro-pyrazol-4-yl)-4-(4-(4-methylpiperazine-1-yl)piperidin-1-yl)phenyl)amino)pyrimidin-4-yl)amino)quinoxalin-5-yl)dimethylphosphine oxide]: the “Instrinsic clearance of liver microsomal protein, CLint” value in series [1] is 1 μL/min/mg proteins. Also, the IC50 (in general, the concentration that inhibits the measured activity by half) at EGFR Δ19del/T790M/C797S came to 0.3 nM.
